# Test results: US7244727B2, “Fused bicyclic nitrogen-containing heterocycles” (Japan Tobacco Inc., priority 2002, dated 2007)
# pIC50: −log10 of the molar value.
# Key:
# human DGAT1 = biological target: T1, human DGAT1 (Homo sapiens, UniProt O75907); test: DGAT Scintillation Proximity Assay (SPA) with membranes of insect cells expressing human flagtag DGAT1; assay type: biochemical; conditions: read-out: hDGAT1 IC50
# T1 construct: made in house; host or cells: insect cells (sf9, sf21 or High Five) infected with baculovirus; total cell membranes
# T1 sequence (O75907 1-488): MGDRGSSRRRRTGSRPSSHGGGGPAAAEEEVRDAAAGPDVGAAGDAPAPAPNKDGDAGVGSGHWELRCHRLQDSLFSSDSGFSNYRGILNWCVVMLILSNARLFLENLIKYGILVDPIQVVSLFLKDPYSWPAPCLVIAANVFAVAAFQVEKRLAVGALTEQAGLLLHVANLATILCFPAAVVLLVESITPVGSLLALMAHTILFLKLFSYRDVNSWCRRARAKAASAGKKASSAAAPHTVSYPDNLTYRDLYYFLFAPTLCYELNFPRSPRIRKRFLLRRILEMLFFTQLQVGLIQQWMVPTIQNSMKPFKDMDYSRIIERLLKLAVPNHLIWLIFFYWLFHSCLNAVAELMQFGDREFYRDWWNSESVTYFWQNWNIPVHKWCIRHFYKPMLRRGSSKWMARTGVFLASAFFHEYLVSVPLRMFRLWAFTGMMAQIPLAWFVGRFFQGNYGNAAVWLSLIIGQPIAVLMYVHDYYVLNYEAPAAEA
# Summary of the method: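 Membranes (0.2 μg/well) from insect cells expressing human flag-tagged DGAT1 incubated with 10 μM compound and 200 μM dioleoyl glycerol substrate; mercuric chloride as inhibition control. Reaction stopped with WGA SPA beads in mercuric chloride, overnight bead coupling, then scintillation proximity signal read.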
Structure (SMILES),pIC50 (human DGAT1),melting point
CCCN(C)C(=O)CC[C@H]1CC[C@H](c2ccc(C3=Nc4c(N)ncnc4OC3(C)C)cc2)CC1 [Example 2-190],7.00 to 8.00,210 to 212 °C
Cc1nc(N)c2c(n1)OC(C)(C)C(c1ccc([C@H]3CC[C@H](CCC(=O)O)CC3)cc1)=N2 [Example 2-191],> 8.00,> 250 °C
Cc1nc(N)c2c(n1)OC(C)(C)C(c1ccc([C@H]3CC[C@H](CCC(=O)NS(C)(=O)=O)CC3)cc1)=N2 [Example 2-192],> 8.00,> 250 °C
Cc1nc(N)c2c(n1)OC(C)(C)C(c1ccc([C@H]3CC[C@H](CCC(=O)NC(C)(C)CO)CC3)cc1)=N2 [Example 2-193],7.00 to 8.00,> 240 °C
Cc1nc(N)c2c(n1)OC(C)(C)C(c1ccc([C@H]3CC[C@H](CCC(=O)N4C[C@@H](O)[C@@H](O)C4)CC3)cc1)=N2 [Example 2-194],7.00 to 8.00,230 to 231 °C
Cc1nc(N)c2c(n1)OC(C)(C)C(c1ccc([C@H]3CC[C@H](CCc4nc(=O)o[nH]4)CC3)cc1)=N2 [Example 2-195],7.00 to 8.00,250 °C (dec.)
Cc1nc(N)c2c(n1)OC(C)(C)C(c1ccc([C@H]3CC[C@H](CCc4nc(=O)s[nH]4)CC3)cc1)=N2 [Example 2-196],7.00 to 8.00,211 °C (dec.)
Cc1nc(N)c2c(n1)OC(C)(C)C(c1ccc([C@H]3CC[C@H](CCc4nc(=O)on4C)CC3)cc1)=N2 [Example 2-197],7.00 to 8.00,250 °C (dec.)
Cc1nc(N)c2c(n1)OC(C)(C)C(c1ccc([C@H]3CC[C@H](CCc4nc(=O)[nH]n4C)CC3)cc1)=N2 [Example 2-198],7.00 to 8.00,> 250 °C
Cc1nc(N)c2c(n1)OC(C)(C)C(c1ccc([C@H]3CC[C@H](CCc4nn[nH]n4)CC3)cc1)=N2 [Example 2-200],> 8.00,> 250 °C
Cc1nc(N)c2c(n1)OC(C)(C)C(c1ccc([C@H]3CC[C@H](CCC(=O)Nc4nn[nH]n4)CC3)cc1)=N2 [Example 2-201],> 8.00,> 250 °C
Cc1nc(N)c2c(n1)OC(C)(C)C(c1ccc([C@H]3CC[C@H](CC(C)(C)C(=O)O)CC3)cc1)=N2 [Example 2-202],7.00 to 8.00,> 225 °C
CC1(C)Oc2ncnc(N)c2N=C1c1ccc([C@H]2CC[C@H](C(=O)NCCO)CC2)cc1 [Example 2-203],7.00 to 8.00,235 to 237 °C
CC1(C)Oc2ncnc(N)c2N=C1c1ccc([C@H]2CC[C@H](C(N)=O)CC2)cc1 [Example 2-204],7.00 to 8.00,> 250 °C
CC1(C)Oc2ncnc(N)c2N=C1c1ccc([C@H]2CC[C@H](C(=O)NCC(=O)O)CC2)cc1 [Example 2-205],7.00 to 8.00,> 250 °C
CC1(C)Oc2ncnc(N)c2N=C1c1ccc([C@H]2CC[C@H](C(=O)N3CCC(C(=O)O)CC3)CC2)cc1 [Example 2-207],7.00 to 8.00,> 250 °C
CC1(C)Oc2ncnc(N)c2N=C1c1ccc([C@H]2CC[C@H](C(=O)N3CCCC3C(=O)O)CC2)cc1 (some centres unmarked) [Example 2-208],7.00 to 8.00,193 to 194 °C
CC(=O)N[C@H]1CC[C@H](c2ccc(C3=Nc4c(N)ncnc4OC3(C)C)cc2)CC1 [Example 2-209],7.00 to 8.00,> 250 °C
CC1(C)Oc2ncnc(N)c2N=C1c1ccc([C@H]2CC[C@H](NS(C)(=O)=O)CC2)cc1 [Example 2-210],7.00 to 8.00,> 250 °C
CC(NC(=O)[C@H]1CC[C@H](c2ccc(C3=Nc4c(N)ncnc4OC3(C)C)cc2)CC1)C(=O)O (some centres unmarked) [Example 2-211],7.00 to 8.00,> 250 °C
CC(C)(NC(=O)[C@H]1CC[C@H](c2ccc(C3=Nc4c(N)ncnc4OC3(C)C)cc2)CC1)C(=O)O [Example 2-212],> 8.00,> 250 °C
CC1(C)Oc2ncnc(N)c2N=C1c1ccc([C@H]2CC[C@H](C(=O)NC(CO)C(=O)O)CC2)cc1 (some centres unmarked) [Example 2-213],7.00 to 8.00,> 250 °C
CN(CC(=O)O)C(=O)[C@H]1CC[C@H](c2ccc(C3=Nc4c(N)ncnc4OC3(C)C)cc2)CC1 [Example 2-214],> 8.00,> 250 °C
CC1(C)Oc2ncnc(N)c2N=C1c1ccc([C@H]2CC[C@H](CN3C(=O)c4ccccc4C3=O)CC2)cc1 [Example 2-217],7.00 to 8.00,225 to 227 °C
CC1(C)Oc2ncnc(N)c2N=C1c1ccc([C@H]2CC[C@H](NS(N)(=O)=O)CC2)cc1 [Example 2-218],7.00 to 8.00,212 °C
